Results published in ChEMBL document CHEMBL3044939, “Insect antifeedant and growth regulating activities of quassinoids from Samadera indica” (2001).

Legend:
Type in all cases: functional
Spodoptera litura [1] = test: Antifeedant activity against Spodoptera litura at 1 ug/cm'2 of castor leaf area relative to control
Spodoptera litura [2] = test: Insecticidal activity against Spodoptera litura assessed as pupal mortality at 0.5 ug/cm'2 of castor leaf area after 24 hr
Spodoptera litura [3] = test: Growth regulating activity of Spodoptera litura assessed as third-instar time at 0.5 ug/cm'2 of castor leaf area after 24 hr
Spodoptera litura [4] = test: Growth regulating activity of Spodoptera litura assessed as total larval time at 0.5 ug/cm'2 of castor leaf area after 24 hr
Spodoptera litura [5] = test: Antifeedant activity against Spodoptera litura at 0.5 ug/cm'2 of castor leaf area relative to control
Spodoptera litura [6] = test: Growth regulating activity of Spodoptera litura assessed as pupal time at 0.5 ug/cm'2 of castor leaf area after 24 hr
Spodoptera litura [7] = test: Growth regulating activity of Spodoptera litura assessed as sixth-instar time at 0.5 ug/cm'2 of castor leaf area after 24 hr
Spodoptera litura [8] = test: Growth regulating activity of Spodoptera litura assessed as fifth-instar time at 0.5 ug/cm'2 of castor leaf area after 24 hr
Spodoptera litura [9] = test: Growth regulating activity of Spodoptera litura assessed as fourth-instar time at 0.5 ug/cm'2 of castor leaf area after 24 hr
Spodoptera litura [10] = test: Antifeedant activity against Spodoptera litura at 5 ug/cm'2 of castor leaf area relative to control

SMILES: C/C=C(\C)C(=O)O[C@H]1C[C@@H](OC(C)=O)[C@@]2(C(=O)OC)CO[C@H]3[C@@H](O)[C@@](C)([C@]45O[C@@]4(C)[C@@H]4C[C@H]5O[C@@H]5OC=C[C@@]54O)[C@H]4[C@]1(CO[C@]4(O)C(=O)OC)[C@@H]32 [AZADIRACHTIN A]
- Activity (Spodoptera litura [1]): 94.8%
- Activity (Spodoptera litura [2]): 62.5%
- Time (Spodoptera litura [3]): 3.2 days
- Time (Spodoptera litura [4]): 16.1 days
- Activity (Spodoptera litura [5]): 91.6%
- Time (Spodoptera litura [6]): 9.3 days
- Time (Spodoptera litura [7]): 5.4 days
- Time (Spodoptera litura [8]): 3.3 days
- Time (Spodoptera litura [9]): 4.1 days
- Activity (Spodoptera litura [10]): 95.4%

SMILES: CC1=CC(=O)[C@@H](O)[C@@]2(C)[C@H]1[C@@H](O)[C@H]1OC(=O)C[C@]3(O)[C@]14CO[C@@]3(C)[C@@H](O)[C@H](O)[C@H]24 [INDAQUASSIN C]
- Activity (Spodoptera litura [1]): 48.9%
- Activity (Spodoptera litura [2]): 10.5%
- Time (Spodoptera litura [3]): 2.3 days
- Time (Spodoptera litura [4]): 14.2 days
- Activity (Spodoptera litura [5]): 47.6%
- Time (Spodoptera litura [6]): 8.5 days
- Time (Spodoptera litura [7]): 4.9 days
- Time (Spodoptera litura [8]): 3.4 days
- Time (Spodoptera litura [9]): 3.8 days
- Activity (Spodoptera litura [10]): 62.5%

SMILES: CC1=CC(=O)[C@@]2(C)C1=CC(=O)[C@@]13CO[C@]4(C)[C@@H](OC(=O)[C@@H]41)[C@H](O)[C@H]23 [SAMADERINS A]
- Activity (Spodoptera litura [1]): 16.2%
- Activity (Spodoptera litura [2]): 7.4%
- Time (Spodoptera litura [3]): 2.9 days
- Time (Spodoptera litura [4]): 15.1 days
- Activity (Spodoptera litura [5]): 18.9%
- Time (Spodoptera litura [6]): 8.8 days
- Time (Spodoptera litura [7]): 4.8 days
- Time (Spodoptera litura [8]): 3.6 days
- Time (Spodoptera litura [9]): 3.6 days
- Activity (Spodoptera litura [10]): 21.1%

SMILES: CC1=CC(=O)[C@@H](O)[C@@]2(C)[C@H]1CC(=O)[C@@]13CO[C@]4(C)[C@@H](OC(=O)[C@@H]41)[C@H](O)[C@@H]32 [SAMADERINS B]
- Activity (Spodoptera litura [1]): 25.9%
- Activity (Spodoptera litura [2]): 37.5%
- Time (Spodoptera litura [3]): 3.1 days
- Time (Spodoptera litura [4]): 15.6 days
- Activity (Spodoptera litura [5]): 16.3%
- Time (Spodoptera litura [6]): 9.3 days
- Time (Spodoptera litura [7]): 5.1 days
- Time (Spodoptera litura [8]): 3.4 days
- Time (Spodoptera litura [9]): 3.8 days
- Activity (Spodoptera litura [10]): 63.1%

SMILES: CC1=C[C@H](O)[C@@H](O)[C@@]2(C)[C@H]1CC(=O)[C@@]13CO[C@]4(C)[C@@H](OC(=O)[C@@H]41)[C@H](O)[C@@H]32 [SAMADERINS C]
- Activity (Spodoptera litura [1]): 16.1%
- Activity (Spodoptera litura [2]): 54.1%
- Time (Spodoptera litura [3]): 2.7 days
- Time (Spodoptera litura [4]): 15.3 days
- Activity (Spodoptera litura [5]): 15%
- Time (Spodoptera litura [6]): 9.7 days
- Time (Spodoptera litura [7]): 4.4 days
- Time (Spodoptera litura [8]): 3.8 days
- Time (Spodoptera litura [9]): 4.4 days
- Activity (Spodoptera litura [10]): 55.3%
